Source: patent US20140235616A1, “PYRAZOLOQUINOLINONE DERIVATIVES, PREPARATION THEREOF AND THERAPEUTIC USE THEREOF” (SANOFI, priority 2011, published 2014)

The compounds below were run against T1, human MetAP2 (Homo sapiens, UniProt P50579) (assay: MetAP2 enzymatic screening test (isolated enzyme, Met-Pro-Arg-pNa substrate, absorbance at 405 nm)). Conditions: read-out: % inhibition hMETAP2 at 100 nM.
T1 construct: made in house; host or cells: Sf9 insect cells (baculovirus)
Format: biochemical
Method: The compounds according to the invention underwent biochemical studies in order to determine their capacity to inhibit the enzyme methionine-aminopeptidase2 (enzymatic test on isolated enzyme).
MetAP2 Enzymatic Screening Test
For the enzymatic test, human MetAP2 protein was obtained from a culture supernatant of insect cells (sf9) infected with MetAP2 recombinant baculovirus.
Before performing the experiment, dialysis of the MetAP2 supernatant is performed over 24 hours at 4° C. in a buffer (10 mM Hepes, 100 mM KCl, 10% glycerol, pH 7.4) in the presence of EDTA (1 mM) over the first 12 hours.
The dialysis supernatant is recovered and manganese, used as cofactor, is added to a final concentration of 300 μM.
The enzymatic test is a test in two steps.
Consequently, the second step consists in reacting the peptides cleaved in the preceding step with a second peptidase in order to release the chromophore.

T1 sequence (P50579 whole entry): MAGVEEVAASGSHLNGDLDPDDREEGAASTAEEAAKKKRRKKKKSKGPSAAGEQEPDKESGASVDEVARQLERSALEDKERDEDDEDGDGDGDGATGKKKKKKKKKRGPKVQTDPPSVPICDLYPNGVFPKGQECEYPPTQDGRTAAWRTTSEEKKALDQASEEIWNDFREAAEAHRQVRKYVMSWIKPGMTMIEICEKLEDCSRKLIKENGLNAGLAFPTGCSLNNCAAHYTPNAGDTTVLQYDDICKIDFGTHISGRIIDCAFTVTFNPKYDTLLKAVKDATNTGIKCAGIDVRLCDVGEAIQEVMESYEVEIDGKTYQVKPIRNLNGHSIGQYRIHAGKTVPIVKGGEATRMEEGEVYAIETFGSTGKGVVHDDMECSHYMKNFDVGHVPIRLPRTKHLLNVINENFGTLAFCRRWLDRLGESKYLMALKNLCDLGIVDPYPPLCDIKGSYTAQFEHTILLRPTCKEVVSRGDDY

Compound	inhibition at 0.1 µM [%]
O=c1c2cn[nH]c2c2ccc(-c3ccccc3F)cc2n1CC(F)(F)F [Compound 3, 7-(2-fluorophenyl)-5-(2,2,2-trifluoroethyl)-1,5-dihydro-4H-pyrazolo[4,3-c]quinolin-4-one]	34
CCN(CC)S(=O)(=O)c1ccccc1-c1ccc2c3[nH]ncc3c(=O)n(CC(F)(F)F)c2c1 [Compound 136, N,N-diethyl-2-[4-oxo-5-(2,2,2-trifluoroethyl)-4,5-dihydro-1H-pyrazolo[4,3-c]quinolin-7-yl]benzenesulfonamide]	45
Cc1cc(N)ncc1-c1ccc2c3[nH]ncc3c(=O)n(CC(F)(F)F)c2c1 [Compound 137, 7-(6-amino-4-methylpyrid-3-yl)-5-(2,2,2-trifluoroethyl)-1,5-dihydro-4H-pyrazolo[4,3-c]quinolin-4-one]	45
COc1ccc(-c2ccc3c4[nH]ncc4c(=O)n(CC(F)(F)F)c3c2)c(C)n1 [Compound 138, 7-(6-methoxy-2-methylpyrid-3-yl)-5-(2,2,2-trifluoroethyl)-1,5-dihydro-4H-pyrazolo[4,3-c]quinolin-4-one]	44
Cc1cc(-c2ccc3c4[nH]ncc4c(=O)n(CC(F)(F)F)c3c2)cnc1-n1cnnc1 [Compound 139, 7-(5-methyl-6-[1,2,4]triazol-4-ylpyrid-3-yl)-5-(2,2,2-trifluoroethyl)-1,5-dihydro-4H-pyrazolo[4,3-c]quinolin-4-one]	44
Cc1cc(-n2cnnc2)ncc1-c1ccc2c3[nH]ncc3c(=O)n(CC(F)(F)F)c2c1 [Compound 140, 7-(4-methyl-6-[1,2,4]triazol-4-ylpyrid-3-yl)-5-(2,2,2-trifluoroethyl)-1,5-dihydro-4H-pyrazolo[4,3-c]quinolin-4-one]	44
O=C(c1ccc(-c2ccc3c4[nH]ncc4c(=O)n(CC(F)(F)F)c3c2)cn1)N1CCOCC1 [Compound 141, 7-[6-(morpholine-4-carbonyl)pyrid-3-yl]-5-(2,2,2-trifluoroethyl)-1,5-dihydro-4H-pyrazolo[4,3-c]quinolin-4-one]	44
Cc1nc(N)ccc1-c1ccc2c3[nH]ncc3c(=O)n(CC(F)(F)F)c2c1 [Compound 142, 7-(6-amino-2-methylpyrid-3-yl)-5-(2,2,2-trifluoroethyl)-1,5-dihydro-4H-pyrazolo[4,3-c]quinolin-4-one]	44
CCc1ncncc1-c1ccc2c3[nH]ncc3c(=O)n(CC(F)(F)F)c2c1 [Compound 143, 7-(4-ethylpyrimidin-5-yl)-5-(2,2,2-trifluoroethyl)-1,5-dihydro-4H-pyrazolo[4,3-c]quinolin-4-one]	43
COC(=O)Cc1ccccc1-c1ccc2c3[nH]ncc3c(=O)n(CC(F)(F)F)c2c1 [Compound 144, methyl {2-[4-oxo-5-(2,2,2-trifluoroethyl)-4,5-dihydro-1H-pyrazolo[4,3-c]quinolin-7-yl]phenyl}acetate]	43
COc1ccnc(-c2ccc3c4[nH]ncc4c(=O)n(CC(F)(F)F)c3c2)c1 [Compound 145, 7-(4-methoxypyrid-2-yl)-5-(2,2,2-trifluoroethyl)-1,5-dihydro-4H-pyrazolo[4,3-c]quinolin-4-one]	42
CCCc1ncncc1-c1ccc2c3[nH]ncc3c(=O)n(CC(F)(F)F)c2c1 [Compound 146, 7-(4-propylpyrimidin-5-yl)-5-(2,2,2-trifluoroethyl)-1,5-dihydro-4H-pyrazolo[4,3-c]quinolin-4-one]	42
CCC(=O)Nc1ccc(-c2ccc3c4[nH]ncc4c(=O)n(CC(F)(F)F)c3c2)c(C)n1 [Compound 147, N-{6-methyl-5-[4-oxo-5-(2,2,2-trifluoroethyl)-4,5-dihydro-1H-pyrazolo[4,3-c]quinolin-7-yl]pyrid-2-yl}propionamide]	42
O=c1c2cn[nH]c2c2ccc(-c3ccccc3-c3cnco3)cc2n1CC(F)(F)F [Compound 148, 7-(2-oxazol-5-ylphenyl)-5-(2,2,2-trifluoroethyl)-1,5-dihydro-4H-pyrazolo[4,3-c]quinolin-4-one]	42
COc1ncc(-c2ccc3c4[nH]ncc4c(=O)n(CC(F)(F)F)c3c2)c(N(C)C)n1 [Compound 149, 7-(4-dimethylamino-2-methoxypyrimidin-5-yl)-5-(2,2,2-trifluoroethyl)-1,5-dihydro-4H-pyrazolo[4,3-c]quinolin-4-one]	42
CCc1nc(-c2ccccc2-c2ccc3c4[nH]ncc4c(=O)n(CC(F)(F)F)c3c2)no1 [Compound 150, 7-[2-(5-ethyl-[1,2,4]oxadiazol-3-yl)phenyl]-5-(2,2,2-trifluoroethyl)-1,5-dihydro-4H-pyrazolo[4,3-c]quinolin-4-one]	42

Compound	inhibition at 0.1 µM [%]
CC(=O)NCc1ccccc1-c1ccc2c3[nH]ncc3c(=O)n(CC(F)(F)F)c2c1 [Compound 151, N-{2-[4-oxo-5-(2,2,2-trifluoroethyl)-4,5-dihydro-1H-pyrazolo[4,3-c]quinolin-7-yl]benzyl}acetamide]	41
O=c1c2cn[nH]c2c2ccc(-c3ccc(C(O)c4ccccc4)cn3)cc2n1CC(F)(F)F (stereo not drawn) [Compound 152, 7-[5-(hydroxyphenylmethyl)pyrid-2-yl]-5-(2,2,2-trifluoroethyl)-1,5-dihydro-4H-pyrazolo[4,3-c]quinolin-4-one]	41
N#Cc1cccc(-c2ccc3c4[nH]ncc4c(=O)n(CC(F)(F)F)c3c2)n1 [Compound 153, 6-[4-oxo-5-(2,2,2-trifluoroethyl)-4,5-dihydro-1H-pyrazolo[4,3-c]quinolin-7-yl]pyridine-2-carbonitrile]	41
O=c1c2cn[nH]c2c2ccc(-c3cccc(CO)n3)cc2n1CC(F)(F)F [Compound 154, 7-(6-hydroxymethylpyrid-2-yl)-5-(2,2,2-trifluoroethyl)-1,5-dihydro-4H-pyrazolo[4,3-c]quinolin-4-one]	41
CN(C)CCOc1cccc(-c2ccc3c4[nH]ncc4c(=O)n(CC(F)(F)F)c3c2)c1 [Compound 155, 7-[3-(2-dimethylaminoethoxy)phenyl]-5-(2,2,2-trifluoroethyl)-1,5-dihydro-4H-pyrazolo[4,3-c]quinolin-4-one]	41
COC(=O)c1ccccc1-c1ccc2c3[nH]ncc3c(=O)n(CC(F)(F)F)c2c1 [Compound 156, methyl 2-[4-oxo-5-(2,2,2-trifluoroethyl)-4,5-dihydro-1H-pyrazolo[4,3-c]quinolin-7-yl]benzoate]	41
O=c1c2cn[nH]c2c2ccc(-c3ccc(CO)cn3)cc2n1CC(F)(F)F [Compound 157, 7-(5-hydroxymethylpyrid-2-yl)-5-(2,2,2-trifluoroethyl)-1,5-dihydro-4H-pyrazolo[4,3-c]quinolin-4-one]	41
COc1cc(-c2ccc3c4[nH]ncc4c(=O)n(CC(F)(F)F)c3c2)ccn1 [Compound 158, 7-(2-methoxypyrid-4-yl)-5-(2,2,2-trifluoroethyl)-1,5-dihydro-4H-pyrazolo[4,3-c]quinolin-4-one]	40
O=c1c2cn[nH]c2c2ccc(-c3ccccc3Cn3cncn3)cc2n1CC(F)(F)F [Compound 159, 7-(2-[1,2,4]triazol-1-ylmethylphenyl)-5-(2,2,2-trifluoroethyl)-1,5-dihydro-4H-pyrazolo[4,3-c]quinolin-4-one]	40
O=c1c2cn[nH]c2c2ccc(-c3cncnc3-c3ccccc3)cc2n1CC(F)(F)F [Compound 160, 7-(4-phenylpyrimidin-5-yl)-5-(2,2,2-trifluoroethyl)-1,5-dihydro-4H-pyrazolo[4,3-c]quinolin-4-one]	40
COc1cc(C)c(-c2ccc3c4[nH]ncc4c(=O)n(CC(F)(F)F)c3c2)cn1 [Compound 161, 7-(6-methoxy-4-methylpyrid-3-yl)-5-(2,2,2-trifluoroethyl)-1,5-dihydro-4H-pyrazolo[4,3-c]quinolin-4-one]	39
CC(C)c1ncncc1-c1ccc2c3[nH]ncc3c(=O)n(CC(F)(F)F)c2c1 [Compound 162, 7-(4-isopropylpyrimidin-5-yl)-5-(2,2,2-trifluoroethyl)-1,5-dihydro-4H-pyrazolo[4,3-c]quinolin-4-one]	38
O=c1c2cn[nH]c2c2ccc(-c3cccc(F)n3)cc2n1CC(F)(F)F [Compound 163, 7-(6-fluoropyrid-2-yl)-5-(2,2,2-trifluoroethyl)-1,5-dihydro-4H-pyrazolo[4,3-c]quinolin-4-one]	38
COC(=O)c1cccc(-c2ccc3c4[nH]ncc4c(=O)n(CC(F)(F)F)c3c2)n1 [Compound 164, methyl 6-[4-oxo-5-(2,2,2-trifluoroethyl)-4,5-dihydro-1H-pyrazolo[4,3-c]quinolin-7-yl]pyridine-2-carboxylate]	37
O=c1c2cn[nH]c2c2ccc(-c3ccc(F)cn3)cc2n1CC(F)(F)F [Compound 165, 7-(5-fluoropyrid-2-yl)-5-(2,2,2-trifluoroethyl)-1,5-dihydro-4H-pyrazolo[4,3-c]quinolin-4-one]	37
Cc1ccnc(-c2ccc3c4[nH]ncc4c(=O)n(CC(F)(F)F)c3c2)c1 [Compound 187, 7-(4-methylpyrid-2-yl)-5-(2,2,2-trifluoroethyl)-1,5-dihydro-4H-pyrazolo[4,3-c]quinolin-4-one]	40

Each compound was assayed on HUVEC cells (assay: Test of in vitro proliferation of HUVEC cells induced with FGF-2). Conditions: Homo sapiens, read-out: HUVEC Proliferation IC50 (M).
Method: Test of In Vitro Proliferation of HUVEC Cells Induced with Fibroblast Growth Factor 2 (FGF-2).
After incubation for 48 hours, the medium is aspirated and replaced with the deprivation medium RPMI1640 mentioned previously. A second stimulation is then performed. The cells are again incubated at 37° C. in the presence of CO2. After incubation for 72 hours, the medium is again aspirated and 100 μl of Cell Titer-GLO™ Luminescent Cell Viability Assay (Promega, G7571) are added over 10 minutes. The amount of ATP present in the cells, measured using a luminometer, is proportional to the number cells per well corresponding to the cell proliferation.

Compound	IC50 [M]
O=c1c2cn[nH]c2c2ccc(-c3ccccc3F)cc2n1CC(F)(F)F [Compound 3, 7-(2-fluorophenyl)-5-(2,2,2-trifluoroethyl)-1,5-dihydro-4H-pyrazolo[4,3-c]quinolin-4-one]	6.6e-07
